Patent publication US20250179061A1 (SIRONAX LTD., priority 2022, published 2025)

These molecules were tested on HT-29 cells (assay: HT-29 necroptosis cell viability assay (TNF-α/SMAC mimetic/zVAD-FMK, CellTiter-Glo)). Details: Homo sapiens, HT-29, HT-29 necroptosis cell viability assay; class symbols for IC50; read-out: Activity.
Type: cell-based
Summary of the method: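 HT-29 cells (~5,000/well, overnight) in FBS-free McCoy's 5A with TNF-α 10 ng/ml, SMAC mimetic 6 μM and zVAD-FMK 10 μM plus 10-point 1:3 compound titration, 20 h at 37°C. ATP measured by CellTiter-Glo luminescence; IC50 as geometric mean of duplicates.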

| Compound | IC50 [nM] |
| --- | --- |
| Cc1nc(C2CC(C(N)=O)C2)sc1Oc1ccc(-n2ncn(Cc3c(F)cccc3F)c2=O)cc1F (stereo not shown) [Example 113, 3-(5-(4-(4-(2,6-difluorobenzyl)-5-oxo-4,5-dihydro-1H-1,2,4-triazol-1-yl)-2-fluorophenoxy)-4-methylthiazol-2-yl)cyclobutane-1-carboxamide] | < 100 |
| Cc1nc(C2(O)COC2)sc1Oc1ccc(-n2nc3n(c2=O)[C@H](c2ccccc2)CC3)cc1F [Example 114, (S)-2-(3-fluoro-4-((2-(3-hydroxyoxetan-3-yl)-4-methylthiazol-5-yl)oxy)phenyl)-5-phenyl-2,5,6,7-tetrahydro-3H-pyrrolo[2,1-c][1,2,4]triazol-3-one] | < 100 |
| Cc1nc(Oc2ccc(-n3ncn(Cc4c(F)cccc4F)c3=O)c(F)c2)n(C)c1C(N)=O [Example 115, 2-(4-(4-(2,6-difluorobenzyl)-5-oxo-4,5-dihydro-1H-1,2,4-triazol-1-yl)-3-fluorophenoxy)-1,4-dimethyl-1H-imidazole-5-carboxamide] | 1000 to 10000 |
| Cc1nc(C(F)(F)C(N)=O)sc1Oc1ccc(-n2ncn(Cc3c(F)cccc3F)c2=O)cc1F [Example 116, 2-(5-(4-(4-(2,6-difluorobenzyl)-5-oxo-4,5-dihydro-1H-1,2,4-triazol-1-yl)-2-fluorophenoxy)-4-methylthiazol-2-yl)-2,2-difluoroacetamide] | < 100 |
| CCOC(=O)C(=O)c1nc(C)c(Oc2ccc(-n3ncn(Cc4c(F)cccc4F)c3=O)cc2F)s1 [Example 117, ethyl 2-(5-(4-(4-(2,6-difluorobenzyl)-5-oxo-4,5-dihydro-1H-1,2,4-triazol-1-yl)-2-fluorophenoxy)-4-methylthiazol-2-yl)-2-oxoacetate] | 100 to 1000 |
| CCOC(=O)C(F)(F)c1nc(C)c(Oc2ccc(-n3ncn(Cc4c(F)cccc4F)c3=O)cc2F)s1 [Example 118, ethyl 2-(5-(4-(4-(2,6-difluorobenzyl)-5-oxo-4,5-dihydro-1H-1,2,4-triazol-1-yl)-2-fluorophenoxy)-4-methylthiazol-2-yl)-2,2-difluoroacetate] | 100 to 1000 |
| Cc1nc(C#N)c(Oc2ccc(-n3ncn(Cc4c(F)cccc4F)c3=O)cc2F)s1 [Example 120, 5-(4-(4-(2,6-difluorobenzyl)-5-oxo-4,5-dihydro-1H-1,2,4-triazol-1-yl)-2-fluorophenoxy)-2-methylthiazole-4-carbonitrile] | < 100 |
| Cn1cc(C#N)nc1Oc1ccc(-n2ncn(Cc3c(F)cccc3F)c2=O)cc1F [Example 121, 2-(4-(4-(2,6-difluorobenzyl)-5-oxo-4,5-dihydro-1H-1,2,4-triazol-1-yl)-2-fluorophenoxy)-1-methyl-1H-imidazole-4-carbonitrile] | 100 to 1000 |
| Cc1nc(C#N)c(C)n1Cc1ccc(-n2ncn(Cc3c(F)cccc3F)c2=O)cc1F [Example 122, 1-(4-(4-(2,6-difluorobenzyl)-5-oxo-4,5-dihydro-1H-1,2,4-triazol-1-yl)-2-fluorobenzyl)-2,5-dimethyl-1H-imidazole-4-carbonitrile] | < 100 |
| Cc1nc(C)n(Cc2ccc(-n3ncn(Cc4c(F)cccc4F)c3=O)cc2F)c1C#N [Example 123, 1-(4-(4-(2,6-difluorobenzyl)-5-oxo-4,5-dihydro-1H-1,2,4-triazol-1-yl)-2-fluorobenzyl)-2,4-dimethyl-1H-imidazole-5-carbonitrile] | 100 to 1000 |
| Cc1cc(C#N)c(C)n1Cc1ccc(-n2ncn(Cc3c(F)cccc3F)c2=O)cc1F [Example 124, 1-(4-(4-(2,6-difluorobenzyl)-5-oxo-4,5-dihydro-1H-1,2,4-triazol-1-yl)-2-fluorobenzyl)-2,5-dimethyl-1H-pyrrole-3-carbonitrile] | < 100 |
| Cc1nc(C#N)cn1Cc1ccc(-n2ncn(Cc3c(F)cccc3F)c2=O)cc1F [Example 125, 1-(4-(4-(2,6-difluorobenzyl)-5-oxo-4,5-dihydro-1H-1,2,4-triazol-1-yl)-2-fluorobenzyl)-2-methyl-1H-imidazole-4-carbonitrile] | < 100 |
| Cc1nc(C(C)(C)O)c(Oc2ccc(-n3ncn(Cc4c(F)cccc4F)c3=O)cc2F)s1 [Example 126, 4-(2,6-difluorobenzyl)-2-(3-fluoro-4-((4-(2-hydroxypropan-2-yl)-2-methylthiazol-5-yl)oxy)phenyl)-2,4-dihydro-3H-1,2,4-triazol-3-one] | 100 to 1000 |
| COC(=O)c1nc(C)sc1Oc1ccc(-n2ncn(Cc3c(F)cccc3F)c2=O)cc1F [Example 127, methyl 5-(4-(4-(2,6-difluorobenzyl)-5-oxo-4,5-dihydro-1H-1,2,4-triazol-1-yl)-2-fluorophenoxy)-2-methylthiazole-4-carboxylate] | < 100 |
| COC(=O)c1ncsc1Oc1ccc(-n2ncn(Cc3c(F)cccc3F)c2=O)cc1F [Example 128, methyl 5-(4-(4-(2,6-difluorobenzyl)-5-oxo-4,5-dihydro-1H-1,2,4-triazol-1-yl)-2-fluorophenoxy)thiazole-4-carboxylate] | 100 to 1000 |
| Cc1nc(C(C)(C)O)sc1Oc1ccc(-n2ncn(Cc3ncccc3C#N)c2=O)cc1F [Example 129, 2-((1-(3-fluoro-4-((2-(2-hydroxypropan-2-yl)-4-methylthiazol-5-yl)oxy)phenyl)-5-oxo-1,5-dihydro-4H-1,2,4-triazol-4-yl)methyl)nicotinonitrile] | 100 to 1000 |
| Cn1nc(C(C)(C)O)cc1Oc1ccc(-n2nc3n(c2=O)C(c2ccccc2)CC3)cc1F (stereo not shown) [Example 130, 2-(3-fluoro-4-((3-(2-hydroxypropan-2-yl)-1-methyl-1H-pyrazol-5-yl)oxy)phenyl)-5-phenyl-2,5,6,7-tetrahydro-3H-pyrrolo[2,1-c][1,2,4]triazol-3-one] | < 100 |

Same assay, conditions: Homo sapiens; HT-29 cells stimulated with TNF-α (10 ng/ml), SMAC mimetic (6 μM) and zVAD-FMK (10 μM); 20 hours; CellTiter-Glo ATP luminescence; geometric mean IC50 from 10 points; read-out: Activity

| Compound | IC50 [nM] |
| --- | --- |
| Cc1nc(C2(F)CC(N)C2)sc1Oc1ccc(-n2ncn(Cc3c(F)cccc3F)c2=O)cc1F (stereo not shown) [Example 109, 2-(4-((2-(3-amino-1-fluorocyclobutyl)-4-methylthiazol-5-yl)oxy)-3-fluorophenyl)-4-(2,6-difluorobenzyl)-2,4-dihydro-3H-1,2,4-triazol-3-one] | < 100 |
| Cc1nc(C2(F)CC(O)C2)sc1Oc1ccc(-n2ncn(Cc3c(F)cccc3F)c2=O)cc1F (stereo not shown) [Example 110, 4-(2,6-difluorobenzyl)-2-(3-fluoro-4-((2-(1-fluoro-3-hydroxycyclobutyl)-4-methylthiazol-5-yl)oxy)phenyl)-2,4-dihydro-3H-1,2,4-triazol-3-one] | < 100 |
| Cc1nc(C2(F)CC(OCc3ccccc3)C2)sc1Oc1ccc(-n2ncn(Cc3c(F)cccc3F)c2=O)cc1F (stereo not shown) [Example 111, 2-(4-((2-(3-(benzyloxy)-1-fluorocyclobutyl)-4-methylthiazol-5-yl)oxy)-3-fluorophenyl)-4-(2,6-difluorobenzyl)-2,4-dihydro-3H-1,2,4-triazol-3-one] | < 100 |
| Cc1nc(C2(O)CC(OCc3ccccc3)C2)sc1Oc1ccc(-n2ncn(Cc3c(F)cccc3F)c2=O)cc1F (stereo not shown) [Example 112, 2-(4-((2-(3-(benzyloxy)-1-hydroxycyclobutyl)-4-methylthiazol-5-yl)oxy)-3-fluorophenyl)-4-(2,6-difluorobenzyl)-2,4-dihydro-3H-1,2,4-triazol-3-one] | 100 to 1000 |
| Cc1nc(C2CC(C)(O)C2)sc1Oc1ccc(-n2ncn(Cc3c(F)cccc3F)c2=O)cc1F (stereo not shown) [Example 119, 4-(2,6-difluorobenzyl)-2-(3-fluoro-4-((2-(3-hydroxy-3-methylcyclobutyl)-4-methylthiazol-5-yl)oxy)phenyl)-2,4-dihydro-3H-1,2,4-triazol-3-one] | < 100 |
